Holding throughout (type): biochemical
The target in test [1] is T1, CAT (catalase) (Ganoderma lucidum, UniProt A0A223M0M1, C671S).
T1 construct: recombinant, pColdI vector, His-tagged, E. coli BL21(DE3), Ni-NTA purified; 6 cysteine residues
Nature of the test: biotin-switch immunoblot; CAT activity by H2O2 decomposition at […] nm. Conditions: covalent; S-nitrosylation; room temperature, dark, 60 min. In general terms: A western blot detects proteins with antibodies after separation by electrophoresis.

In test [2] the target is T2, CAT (catalase) (Ganoderma lucidum, UniProt A0A223M0M1, C660S).
T2 construct: recombinant, pColdI vector, His-tagged, E. coli BL21(DE3), Ni-NTA purified; 6 cysteine residues
The test is described as above. The note with it: covalent; S-nitrosylation; room temperature, dark, 60 min.

For test [3], the target named is T3, CAT (catalase) (Ganoderma lucidum, UniProt A0A223M0M1, C419S).
T3 construct: recombinant, pColdI vector, His-tagged, E. coli BL21(DE3), Ni-NTA purified; 6 cysteine residues
The test is described as above. The note with it: covalent; S-nitrosylation; room temperature, dark, 60 min.

Test [4] addresses T4, CAT (catalase) (Ganoderma lucidum, UniProt A0A223M0M1).
T4 construct: recombinant, pColdI vector, His-tagged, E. coli BL21(DE3), Ni-NTA purified; 6 cysteine residues
Nature of the test: biotin-switch immunoblot, LC-MS/MS of sites; CAT activity by H2O2 decomposition at […] nm. Conditions: covalent; S-nitrosylation at Cys401, Cys642, Cys653; room temperature, dark, 60 min; activating.

T4 sequence (A0A223M0M1 entry or part of it): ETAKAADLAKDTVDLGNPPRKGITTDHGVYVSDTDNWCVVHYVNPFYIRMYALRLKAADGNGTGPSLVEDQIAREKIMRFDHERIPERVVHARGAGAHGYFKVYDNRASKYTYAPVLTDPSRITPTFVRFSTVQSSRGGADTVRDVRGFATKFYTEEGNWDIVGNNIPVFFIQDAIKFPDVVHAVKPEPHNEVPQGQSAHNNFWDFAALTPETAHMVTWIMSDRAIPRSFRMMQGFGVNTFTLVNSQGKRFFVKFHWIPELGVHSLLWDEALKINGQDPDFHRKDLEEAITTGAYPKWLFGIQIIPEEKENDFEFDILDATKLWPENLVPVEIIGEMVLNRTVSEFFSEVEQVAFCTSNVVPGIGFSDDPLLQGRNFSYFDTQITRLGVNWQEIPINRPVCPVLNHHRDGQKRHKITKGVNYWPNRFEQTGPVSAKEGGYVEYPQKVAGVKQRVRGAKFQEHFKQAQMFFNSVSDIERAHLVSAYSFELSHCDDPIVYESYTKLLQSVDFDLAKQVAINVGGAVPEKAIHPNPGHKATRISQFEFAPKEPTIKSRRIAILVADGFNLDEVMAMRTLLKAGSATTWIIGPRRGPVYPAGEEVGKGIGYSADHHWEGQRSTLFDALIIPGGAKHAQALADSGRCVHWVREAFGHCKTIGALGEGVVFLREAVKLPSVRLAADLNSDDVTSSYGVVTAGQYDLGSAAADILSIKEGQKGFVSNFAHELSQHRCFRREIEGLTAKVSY
T3 sequence (A0A223M0M1 entry or part of it C419S): as the sequence (A0A223M0M1 entry or part of it) above, with C401S counted along it
T1 sequence (A0A223M0M1 entry or part of it C671S): as the sequence (A0A223M0M1 entry or part of it) above, with C653S counted along it
T2 sequence (A0A223M0M1 entry or part of it C660S): as the sequence (A0A223M0M1 entry or part of it) above, with C642S counted along it

As for `N[C@@H](CCC(=O)N[C@@H](CSN=O)C(=O)NCC(=O)O)C(=O)O` [GSNO, S-nitrosoglutathione], the “biotin-switch immunoblot; CAT activity by H2O2 decomposition at 240 nm” value in test [1] is “The C401S, C642S, and C653S single mutants”; in test [2], “The C401S, C642S, and C653S single mutants”; in test [3], “The C401S, C642S, and C653S single mutants”. In addition, in test [4], the “biotin-switch immunoblot, LC-MS/MS of sites; CAT activity by H2O2 decomposition” value is “CAT was S-nitrosylated, which was induced by GSNO”.

Values taken from article PMC8752759, “GSNOR regulates ganoderic acid content in Ganoderma lucidum under heat stress through S-nitrosylation of catalase” (Communications Biology, 2022).
